Source: patent US8614242B2, “1-(heterocyclic carbonyl)-2-substituted pyrrolidines” (Bayer Intellectual Property GmbH, priority 2010, dated 2013)

Columns and labels:
[1] = logP by HPLC on reversed-phase column (EEC Directive 79/831 Annex V.A8); format: physicochemical; settings: HPLC on reversed-phase column (C 18), 40° C., 0.1% aqueous formic acid and acetonitrile, linear gradient 10% to 90% acetonitrile
Procedure: In table 1, the logP values were determined in accordance with EEC Directive 79/831 Annex V.A8 by HPLC (High Performance Liquid Chromatography) on a reversed-phase column (C 18), using the method described below: Temperature: 40° C.; Mobile phases: 0.1% aqueous formic acid and acetonitrile; linear gradient from 10% acetonitrile to 90% acetonitrile. Calibration was carried out using unbranched alkan-2-ones (comprising 3 to 16 carbon atoms) with known logP values (determination of the logP values by the retention times using linear interpolation between two successive alkanones). lambda-max-values were determined using UV-spectra from 200 nm to 400 nm and the peak values of the chromatographic signals.

Alternaria solani = assay: In vivo preventive test on Alternaria solani (tomato); settings: 500 ppm of active ingredient, evaluated 7 days after inoculation
Procedure: The plants remain for one day in an incubation cabinet at approximately 22° C. and a relative atmospheric humidity of 100%. Then the plants are placed in an incubation cabinet at approximately 20° C. and a relative atmospheric humidity of 96%.

Sphaerotheca fuliginea = assay: In vivo preventive test on Sphaerotheca fuliginea (cucumber); settings: 500 ppm of active ingredient, evaluated 7 days after inoculation
Pyrenophora teres = assay: In vivo preventive test on Pyrenophora teres (barley); settings: 500 ppm of active ingredient, evaluated 7-9 days after inoculation
Procedure: The plants remain for 48 hours in an incubation cabinet at 22° C. and a relative atmospheric humidity of 100%.

Row | SMILES | logP [1] | Efficacy (Alternaria solani) [%] | Efficacy (Sphaerotheca fuliginea) [%] | Efficacy (Pyrenophora teres) [%]
1 | Cc1ccccc1C1CCCN1C(=O)c1c(C(F)F)nn(C)c1Cl (centres unmarked) [Example 1] | 2.90 | 80 |  | 80
2 | Cc1ccccc1C1CCCN1C(=O)c1c(C(F)F)nn(C)c1F (centres unmarked) [Example 2] | 2.75 | 90 | 95 | 100
3 | COc1ccccc1C1CCCN1C(=O)c1c(C(F)F)nn(C)c1F (centres unmarked) [Example 3] | 2.59 | 80 |  | 
4 | COc1ccc(C2CCCN2C(=O)c2c(C(F)F)nn(C)c2F)cc1 (centres unmarked) [Example 4] | 2.42 | 80 |  | 
5 | Cn1nc(C(F)F)c(C(=O)N2CCCC2c2ccccc2Cl)c1Cl (centres unmarked) [Example 5] | 3.04 | 80 |  | 80
6 | Cn1nc(C(F)F)c(C(=O)N2CCCC2c2ccccc2Cl)c1F (centres unmarked) [Example 6] | 2.90 | 100 | 90 | 100
7 | Cn1nc(C(F)F)c(C(=O)N2CCCC2c2ccc(Cl)cc2)c1Cl (centres unmarked) [Example 7] | 3.04 | 95 |  | 70
8 | Cn1nc(C(F)F)c(C(=O)N2CCCC2c2ccc(Cl)cc2)c1F (centres unmarked) [Example 8] | 2.90 | 100 |  | 100
9 | Cn1nc(C(F)F)c(C(=O)N2CCCC2c2cc(F)cc(F)c2)c1Cl (centres unmarked) [Example 9] | 2.82 |  |  | 90
10 | Cn1nc(C(F)F)c(C(=O)N2CCCC2c2cc(F)cc(F)c2)c1F (centres unmarked) [Example 10] | 2.70 | 95 | 85 | 100
11 | Cn1nc(C(F)F)c(C(=O)N2CCCC2c2ccc3c(c2)OCO3)c1F (centres unmarked) [Example 11] | 2.35 |  |  | 70
12 | Cn1nc(C(F)F)c(C(=O)N2CCCC2c2ccc(C(C)(C)C)cc2)c1Cl (centres unmarked) [Example 12] | 3.90 | 90 |  | 95
13 | Cn1nc(C(F)F)c(C(=O)N2CCCC2c2ccc(C(C)(C)C)cc2)c1F (centres unmarked) [Example 13] | 3.74 | 100 | 93 | 100
14 | Cn1nc(C(F)F)c(C(=O)N2CCCC2c2ccccc2C(F)(F)F)c1Cl (centres unmarked) [Example 14] | 3.19 | 95 |  | 90
15 | Cn1nc(C(F)F)c(C(=O)N2CCCC2c2ccccc2C(F)(F)F)c1F (centres unmarked) [Example 15] | 3.09 | 95 |  | 100
16 | Cn1nc(C(F)F)c(C(=S)N2CCCC2c2cccc(C(F)(F)F)c2)c1Cl (centres unmarked) [Example 19] | 3.79 |  |  | 100

Row | SMILES | logP [1] | Efficacy (Alternaria solani) [%] | Efficacy (Sphaerotheca fuliginea) [%] | Efficacy (Pyrenophora teres) [%]
17 | Cn1nc(C(F)F)c(C(=O)N2CCCC2c2ccc(C(F)(F)F)cc2)c1Cl (centres unmarked) [Example 20] | 3.25 | 70 |  | 70
18 | Cn1nc(C(F)F)c(C(=O)N2CCCC2c2ccc(Cl)cc2Cl)c1Cl (centres unmarked) [Example 23] | 3.57 | 95 |  | 100
19 | Cn1nc(C(F)F)c(C(=O)N2CCCC2c2ccc(Cl)c(Cl)c2)c1Cl (centres unmarked) [Example 25] | 3.37 | 95 |  | 95
20 | Cn1nc(C(F)F)c(C(=O)N2CCCC2c2ccc(-c3ccccc3)cc2)c1F (centres unmarked) [Example 29] | 3.50 | 95 |  | 100
21 | Cn1nc(C(F)F)c(C(=O)N2CCCC2c2ccc(-c3ccccc3)cc2)c1Cl (centres unmarked) [Example 30] | 3.65 |  |  | 100
22 | Cn1nc(C(F)F)c(C(=O)N2CCCC2c2ccccc2Br)c1Cl (centres unmarked) [Example 31] | 3.09 | 90 |  | 95
23 | Cn1nc(C(F)F)c(C(=O)N2CCCC2c2cccc(Br)c2)c1Cl (centres unmarked) [Example 33] | 3.06 | 95 |  | 100
24 | Cn1nc(C(F)F)c(C(=O)N2CCCC2c2cc(C(F)(F)F)cc(C(F)(F)F)c2)c1Cl (centres unmarked) [Example 40] | 3.79 | 95 |  | 95
25 | Cn1nc(C(F)F)c(C(=O)N2CCCC2c2cccc3ccccc23)c1F (centres unmarked) [Example 41] | 3.08 |  | 75 | 90
26 | Cn1nc(C(F)F)c(C(=O)N2CCCC2c2ccco2)c1F (centres unmarked) [Example 42] | 2.13 |  |  | 
27 | Cn1nc(C(F)F)c(C(=O)N2CCCC2c2ccccn2)c1F (centres unmarked) [Example 43] | 0.92 |  |  | 
28 | Cn1nc(C(F)F)c(C(=O)N2CCCC2c2cccnc2)c1F (centres unmarked) [Example 44] | 0.48 |  |  | 
29 | Cn1nc(C(F)F)c(C(=O)N2CCCC2c2cccs2)c1F (centres unmarked) [Example 45] | 2.39 | 90 |  | 95
30 | Cn1nc(C(F)F)c(C(=O)N2CCCC2c2cnc3ccccc3c2)c1F (centres unmarked) [Example 46] | 1.50 |  |  | 
31 | Cn1nc(C(F)F)c(C(=O)N2CCCC2c2ccc3ncccc3c2)c1F (centres unmarked) [Example 47] | 1.14 |  |  | 

Further lines, with some results ahead:

Row | logP [1] | SMILES | Efficacy (Alternaria solani) [%] | Efficacy (Sphaerotheca fuliginea) [%] | Efficacy (Pyrenophora teres) [%]
32 | 3.29 | CC(c1ccccc1Cl)C1CCCN1C(=O)c1c(C(F)F)nn(C)c1F (mixture of isomers) [Example 62] |  |  | 
33 | 3.46 | CC(c1ccccc1Cl)C1CCCN1C(=O)c1c(C(F)F)nn(C)c1Cl (mixture of isomers) [Example 63] |  |  | 
34 | 3.87 | CC(c1ccc(Cl)cc1Cl)C1CCCN1C(=O)c1c(C(F)F)nn(C)c1F (mixture of isomers) [Example 71] |  |  | 
35 | 4.06 | CC(c1ccc(Cl)cc1Cl)C1CCCN1C(=O)c1c(C(F)F)nn(C)c1Cl (mixture of isomers) [Example 72] |  |  | 
36 | 3.76 | CC(c1cc(Cl)ccc1Cl)C1CCCN1C(=O)c1c(C(F)F)nn(C)c1F (mixture of isomers) [Example 73] |  |  | 
37 | 3.96 | CC(c1cc(Cl)ccc1Cl)C1CCCN1C(=O)c1c(C(F)F)nn(C)c1Cl (mixture of isomers) [Example 74] |  |  | 
38 | 3.52 | CC(c1c(Cl)cccc1Cl)C1CCCN1C(=O)c1c(C(F)F)nn(C)c1F (mixture of isomers) [Example 78] |  |  | 
39 | 3.81 | CC(c1c(Cl)cccc1Cl)C1CCCN1C(=O)c1c(C(F)F)nn(C)c1Cl (mixture of isomers) [Example 79] |  |  | 
40 | 3.83 | Cn1nc(C(F)F)c(C(=S)N2CCCC2Cc2ccccc2Cl)c1F (racemic) [Example 61] | 100 | 95 | 100
41 | 4.24 | Cn1nc(C(F)F)c(C(=O)N2CCCC2Cc2ccc(C(C)(C)C)cc2)c1F (racemic) [Example 68] | 94 |  | 100
42 | 3.64 | Cn1nc(C(F)F)c(C(=O)N2CCCC2Cc2cccc(Cl)c2Cl)c1F (racemic) [Example 69] | 100 | 88 | 100
43 | 4.46 | Cn1nc(C(F)F)c(C(=S)N2CCCC2Cc2cccc(Cl)c2Cl)c1F (racemic) [Example 70] | 95 |  | 100
44 | 3.50 | Cn1nc(C(F)F)c(C(=O)N2CCCC2Cc2c(Cl)cccc2Cl)c1Cl (racemic) [Example 75] | 90 |  | 100
45 | 4.06 | Cn1nc(C(F)F)c(C(=S)N2CCCC2Cc2c(Cl)cccc2Cl)c1F (racemic) [Example 77] | 100 | 95 | 100
46 | 3.39 | Cn1nc(C(F)F)c(C(=O)N2CCCC2Cc2ccc(Br)cc2)c1F (racemic) [Example 80] | 100 | 89 | 100
47 | 3.52 | Cn1nc(C(F)F)c(C(=O)N2CCCC2Cc2cccc3ccccc23)c1F (racemic) [Example 83] | 100 |  | 100
48 | 3.02 | Cn1nc(C(F)F)c(C(=O)N2CCCC2CCc2ccccc2)c1F (racemic) [Example 84] | 90 |  | 100
49 | 2.13 | Cn1nc(C(F)F)c(C(=O)N2CCCC2CS(=O)(=O)c2ccccc2)c1F (racemic) [Example 87] |  |  | 
50 | 2.20 | Cn1nc(C(F)F)c(C(=O)N2CCCC2CS(=O)(=O)c2ccccc2)c1Cl (racemic) [Example 88] |  |  | 
51 | 3.11 | Cn1nc(C(F)F)c(C(=O)N2CCCC2c2cc3ccccc3s2)c1F (centres unmarked) [Example 48] |  | 93 | 100
52 | 3.25 | Cn1nc(C(F)F)c(C(=O)N2CCCC2c2cc3ccccc3s2)c1Cl (centres unmarked) [Example 49] |  |  | 95
53 | 2.61 | Cn1nc(C(F)F)c(C(=O)N2CCCC2c2nc3ccccc3s2)c1Cl (centres unmarked) [Example 50] |  |  | 
54 | 2.49 | Cn1nc(C(F)F)c(C(=O)N2CCCC2c2nc3ccccc3s2)c1F (centres unmarked) [Example 51] |  |  | 95
55 | 4.36 | Cn1nc(C(F)F)c(C(=O)N2CCC[C@H]2COc2c(Cl)cc(Cl)cc2Cl)c1Cl [Example 81] |  | 100 | 
56 | 3.29 | Cn1nc(C(F)F)c(C(=O)N2CCC[C@H]2COc2ccc(Cl)cc2)c1F [Example 85] |  |  | 
57 | 3.44 | Cn1nc(C(F)F)c(C(=O)N2CCC[C@H]2COc2ccc(Cl)cc2)c1Cl [Example 86] |  |  | 
